As a reminder, the IC50 is the concentration at which inhibition is half-maximal.

The record followed here is patent publication US12195482B1 (Arcus Biosciences, Inc., priority 2022, dated 2025).

Molecules are shown by their SMILES.

One assay deals with T1, recombinant human MER (Homo sapiens, UniProt Q12866).
T1 construct: purchased Invitrogen
T1 sequence (Q12866 21-999): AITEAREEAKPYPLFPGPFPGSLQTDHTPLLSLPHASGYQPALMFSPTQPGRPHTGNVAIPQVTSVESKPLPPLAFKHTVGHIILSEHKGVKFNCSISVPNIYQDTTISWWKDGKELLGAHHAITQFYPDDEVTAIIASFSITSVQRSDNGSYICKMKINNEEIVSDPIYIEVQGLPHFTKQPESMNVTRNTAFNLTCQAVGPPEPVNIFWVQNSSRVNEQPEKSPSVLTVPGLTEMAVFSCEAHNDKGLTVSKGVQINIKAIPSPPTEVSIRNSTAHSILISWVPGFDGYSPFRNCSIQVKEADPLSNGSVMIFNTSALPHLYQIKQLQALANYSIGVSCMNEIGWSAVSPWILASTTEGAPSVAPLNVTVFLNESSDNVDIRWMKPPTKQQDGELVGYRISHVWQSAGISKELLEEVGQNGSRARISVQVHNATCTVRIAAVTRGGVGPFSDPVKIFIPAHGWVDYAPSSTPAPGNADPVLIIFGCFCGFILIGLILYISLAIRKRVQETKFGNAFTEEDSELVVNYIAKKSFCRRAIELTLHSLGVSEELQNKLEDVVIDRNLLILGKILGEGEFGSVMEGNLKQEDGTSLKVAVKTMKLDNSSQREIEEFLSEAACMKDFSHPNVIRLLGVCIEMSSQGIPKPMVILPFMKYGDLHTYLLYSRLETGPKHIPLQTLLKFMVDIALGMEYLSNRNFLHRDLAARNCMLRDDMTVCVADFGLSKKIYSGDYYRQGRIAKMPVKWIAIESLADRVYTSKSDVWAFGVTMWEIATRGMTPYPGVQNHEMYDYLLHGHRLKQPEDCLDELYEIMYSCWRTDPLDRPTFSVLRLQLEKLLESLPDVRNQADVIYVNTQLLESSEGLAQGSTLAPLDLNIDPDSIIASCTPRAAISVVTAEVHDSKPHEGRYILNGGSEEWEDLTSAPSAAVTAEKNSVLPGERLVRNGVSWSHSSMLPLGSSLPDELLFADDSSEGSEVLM
In words: Biochemical potency, HTRF KinEASE-TK kinase assay. The settings on record: 1 nM MER, 700 μM ATP. As for the experimental part: (§1) Measurement of Biochemical Compound Potency of Axl Inhibitors
(§2) Purified recombinant human AXL, TYRO3 and MER proteins were purchased from Invitrogen™. 10 nM AXL, 2 nM TYRO3 or MER were incubated with varying concentrations of compounds in 50 mM HEPES, pH 7.4, 10 mM MgCl2, 0.01% BSA, 1 mM DTT and 2% DMSO in a total volume of 20 μl in a 384-well microplate (Corning™ #3640) at RT for 1 h. The AXL, TYRO3 and MER enzymatic reaction was initiated by transferring 10 μl of enzyme and compound mixture into 10 μl of 1.6 μM TK Substrate-biotin (HTRF® KinEASE-TK kit, Cisbio) and 1400 μM ATP pre-incubated in 50 mM HEPES, pH 7.4, 10 mM MgCl2, 0.01% BSA, 1 mM DTT in a 384-well microplate (Corning™ #3640) at RT, giving the final reaction conditions: 5 nM AXL, 1 nM TYRO3 or MER, 800 nM TK Substrate-biotin and 700 μM ATP in 50 mM HEPES, pH 7.4, 10 mM MgCl2, 0.01% BSA, 1 mM DTT and 1% DMSO with varying concentrations of compounds. Following 2 h incubation at RT, the AXL, TYRO3 and MER enzymatic reaction was stopped by transfer of 10 μl of reaction into 10 μl of detection mix (400 nM Streptavidin-XL665, 200-fold dilution TK Antibody-Cryptate and detection buffer, HTRF® KinEASE-TK kit, Cisbio) in a white 384-well microplate (Perkin Elmer, OptiPlate 384). After 1 h incubation at RT, the plate was put into a plate reader (Evision) to read at 665/620 nm (acceptor/donor) for HTRF. The value of the DMSO blank (MIN inhibition=100% activity) was used as a negative control. The positive control was established by adding 5 μl of enzyme and DMSO mixture into 10 μl of detection mix followed by addition of 5 μl of TK Substrate-biotin and ATP mixture (MAX inhibition=0% activity). To calculate the percent activity, Equation 1 was used. Ratio665/620 is the value at a given compound concentration: […]
Background: TR-FRET usually uses a lanthanide donor and a delayed reading to cut background.

The target of a further assay is T2, recombinant human TYRO3 (Homo sapiens, UniProt Q06418).
T2 construct: purchased Invitrogen
T2 sequence (Q06418 41-890): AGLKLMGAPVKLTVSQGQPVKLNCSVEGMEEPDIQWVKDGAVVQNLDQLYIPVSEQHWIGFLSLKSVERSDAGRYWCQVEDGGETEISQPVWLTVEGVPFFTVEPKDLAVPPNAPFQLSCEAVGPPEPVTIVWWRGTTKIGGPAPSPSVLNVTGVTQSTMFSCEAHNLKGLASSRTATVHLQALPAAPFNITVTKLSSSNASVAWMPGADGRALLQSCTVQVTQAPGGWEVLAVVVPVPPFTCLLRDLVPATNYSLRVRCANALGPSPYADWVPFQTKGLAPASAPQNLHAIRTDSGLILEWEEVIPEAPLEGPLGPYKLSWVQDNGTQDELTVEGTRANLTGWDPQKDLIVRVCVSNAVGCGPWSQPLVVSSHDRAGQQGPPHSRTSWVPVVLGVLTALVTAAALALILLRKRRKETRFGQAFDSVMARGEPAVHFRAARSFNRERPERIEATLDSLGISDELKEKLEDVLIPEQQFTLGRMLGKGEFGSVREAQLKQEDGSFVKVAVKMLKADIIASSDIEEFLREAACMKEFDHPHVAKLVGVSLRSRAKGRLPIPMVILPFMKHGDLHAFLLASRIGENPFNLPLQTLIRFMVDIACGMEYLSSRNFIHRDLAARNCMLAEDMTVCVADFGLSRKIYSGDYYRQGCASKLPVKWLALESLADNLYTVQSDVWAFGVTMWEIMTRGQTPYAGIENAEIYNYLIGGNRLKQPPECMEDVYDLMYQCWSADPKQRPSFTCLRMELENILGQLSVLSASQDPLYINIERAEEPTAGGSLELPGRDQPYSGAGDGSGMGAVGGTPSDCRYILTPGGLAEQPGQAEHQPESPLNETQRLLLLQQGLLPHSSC
Description: Biochemical potency, HTRF KinEASE-TK kinase assay. The settings on record: 1 nM TYRO3, 700 μM ATP. As for the experimental part: as §1, §2

As for `COC[C@H]1CCN([C@H]2CCc3ccc(-c4cnc5[nH]nc(-c6ccc(-c7ncccc7C)cc6)c5c4)cc3CC2)C1` [Example 132, 2-(4-{5-[(7S)-7-[(3S)-3-(Methoxymethyl)pyrrolidin-1-yl]-6,7,8,9-tetrahydro-5H-benzo[7]annulen-2-yl]-1H-pyrazolo[3,4-b]pyridin-3-yl}phenyl)-3-methylpyridine], the IC50 on recombinant human MER and at recombinant human TYRO3 was under 100 nM throughout.
`CCc1cccnc1-c1ccc(-c2c[nH]c3ncc(-c4ccc5c(c4)CC[C@@H](N4C6COCC4C6)CC5)cc23)cc1` [Example 183, 6-[(7S)-2-{3-[4-(3-Ethylpyridin-2-yl)phenyl]-1H-pyrrolo[2,3-b]pyridin-5-yl}-6,7,8,9-tetrahydro-5H-benzo[7]annulen-7-yl]-3-oxa-6-azabicyclo[3.1.1]heptane]: the 50% inhibitory concentration (IC50) on recombinant human MER is 100 to 1000 nM; on recombinant human TYRO3 it was under 100 nM.
As for `Cc1ccnc(-c2ccc(-c3n[nH]c4ncc(-c5ccc6c(c5)CC[C@@H](N5C7COCC5C7)CC6)cc34)cc2)c1C` [Example 118, 6-[(7S)-2-{3-[4-(3,4-Dimethylpyridin-2-yl)phenyl]-1H-pyrazolo[3,4-b]pyridin-5-yl}-6,7,8,9-tetrahydro-5H-benzo[7]annulen-7-yl]-3-oxa-6-azabicyclo[3.1.1]heptane], the IC50 at recombinant human MER is 100 to 1000 nM; on recombinant human TYRO3, under 100 nM.
Take `OC1(c2cccnc2-c2ccc(-c3c[nH]c4ncc(-c5ccc6c(c5)CC[C@@H](N5C7COCC5C7)CC6)cc34)cc2)CCC1` [Example 22, 1-[2-[4-[5-[(7S)-7-(3-Oxa-6-azabicyclo[3.1.1]heptan-6-yl)-6,7,8,9-tetrahydro-5H-benzo[7]annulen-3-yl]-1H-pyrrolo[2,3-b]pyridin-3-yl]phenyl]pyridin-3-yl]cyclobutan-1-ol]: the IC50 at recombinant human MER and on recombinant human TYRO3 was under 100 nM throughout.
Take `Cc1cc(F)cnc1-c1ccc(-c2n[nH]c3ncc(-c4ccc5c(c4)CC[C@@H](N4C6COCC4C6)CC5)cc23)cc1` [Example 28, 6-[(7S)-3-[3-[4-(5-Fluoro-3-methylpyridin-2-yl)phenyl]-1H-pyrazolo[3,4-b]pyridin-5-yl]-6,7,8,9-tetrahydro-5H-benzo[7]annulen-7-yl]-3-oxa-6-azabicyclo[3.1.1]heptane]: the half-inhibitory concentration (IC50) at recombinant human MER is 100 to 1000 nM; on recombinant human TYRO3, under 100 nM.
`O=C1CCCN1c1cccnc1-c1ccc(-c2n[nH]c3ncc(-c4ccc5c(c4)CC[C@@H](N4C6COCC4C6)CC5)cc23)cc1` [Example 177, 1-[2-(4-{5-[(7S)-7-{3-Oxa-6-azabicyclo[3.1.1]heptan-6-yl}-6,7,8,9-tetrahydro-5H-benzo[7]annulen-2-yl]-1H-pyrazolo[3,4-b]pyridin-3-yl}phenyl)pyridin-3-yl]pyrrolidin-2-one]: the IC50 on recombinant human MER and on recombinant human TYRO3 was 100 to 1000 nM throughout.
Regarding `Cc1cc(F)cnc1-c1ccc(-c2c[nH]c3ncc(-c4ccc5c(c4)CC[C@@H](N4C6COCC4C6)CC5)cc23)cc1` [Example 29, 6-[(7S)-3-[3-[4-(5-Fluoro-3-methylpyridin-2-yl)phenyl]-1H-pyrrolo[2,3-b]pyridin-5-yl]-6,7,8,9-tetrahydro-5H-benzo[7]annulen-7-yl]-3-oxa-6-azabicyclo[3.1.1]heptane], the IC50 at recombinant human MER and on recombinant human TYRO3 was 100 to 1000 nM each time.
With `Cc1cccnc1-c1ccc(-c2c[nH]c3ncc(-c4ccc5c(c4)CC[C@@H](N4C[C@@H]6C[C@H]4CO6)CC5)cc23)cc1` [Example 187, (4S)-5-[(7S)-2-{3-[4-(3-Methylpyridin-2-yl)phenyl]-1H-pyrrolo[2,3-b]pyridin-5-yl}-6,7,8,9-tetrahydro-5H-benzo[7]annulen-7-yl]-2-oxa-5-azabicyclo[2.2.1]heptane], the IC50 is 100 to 1000 nM at recombinant human MER and under 100 nM on recombinant human TYRO3.
As to `COc1cccnc1-c1ccc(-c2n[nH]c3ncc(-c4ccc5c(c4)CC[C@@H](N4C6COCC4C6)CC5)cc23)cc1` [Example 166, 6-[(7S)-2-{3-[4-(3-Methoxypyridin-2-yl)phenyl]-1H-pyrazolo[3,4-b]pyridin-5-yl}-6,7,8,9-tetrahydro-5H-benzo[7]annulen-7-yl]-3-oxa-6-azabicyclo[3.1.1]heptane], the results for the IC50 at recombinant human MER and at recombinant human TYRO3 were 100 to 1000 nM and under 100 nM, respectively.
Regarding `Cn1nncc1-c1ccc(-c2n[nH]c3ncc(-c4ccc5c(c4)CC[C@@H](N4C6COCC4C6)CC5)cc23)cc1` [Example 13, 6-[(7S)-2-{3-[4-(1-Methyl-1H-1,2,3-triazol-5-yl)phenyl]-1H-pyrazolo[3,4-b]pyridin-5-yl}-6,7,8,9-tetrahydro-5H-benzo[7]annulen-7-yl]-3-oxa-6-azabicyclo[3.1.1]heptane], the IC50 at recombinant human MER and at recombinant human TYRO3 was over 1000 nM each time.
Take `CC(C)(C#N)c1cccnc1-c1ccc(-c2c[nH]c3ncc(-c4ccc5c(c4)CC[C@@H](N4C6COCC4C6)CC5)cc23)cc1` [Example 21, 2-Methyl-2-[2-[4-[5-[(7S)-7-(3-oxa-6-azabicyclo[3.1.1]heptan-6-yl)-6,7,8,9-tetrahydro-5H-benzo[7]annulen-3-yl]-1H-pyrrolo[2,3-b]pyridin-3-yl]phenyl]pyridin-3-yl]propanenitrile]: the concentration for half-maximal inhibition (IC50) at recombinant human MER is 100 to 1000 nM; at recombinant human TYRO3, under 100 nM.
Take `Cc1cccnc1-c1ccc(-c2c[nH]c3ncc(-c4ccc5c(c4)CC[C@@](C)(N4CCC[C@H]4C)CC5)cc23)cc1` [Example 172, 3-Methyl-2-(4-{5-[(7S)-7-methyl-7-[(2R)-2-methylpyrrolidin-1-yl]-6,7,8,9-tetrahydro-5H-benzo[7]annulen-2-yl]-1H-pyrrolo[2,3-b]pyridin-3-yl}phenyl)pyridine]: the IC50 at recombinant human MER and at recombinant human TYRO3 was under 100 nM each time.
